# In US8084621B2, “3-Pyrrolo[b]cyclohexylene-2-dihydroindolinone derivatives and uses thereof” (Jiangsu Simcere Pharmaceutical R&D Co. Ltd., priority 2006, dated 2011):
# Target: T1, PDGFR-β (Homo sapiens, UniProt P09619)
# T1 construct: purchased Cell Signaling Technology CO
# Experiment: Protein kinase activity by ELISA in vitro, PDGFR-β
# Assay type: biochemical
# Settings: concentration of 10^−7 mol/L; read-out: kinase inhibition ratio, PDGFR-β
# Description: An ELISA (Enzyme-Linked Immunosorbent Sandwich Assay) procedure may be used to detect and measure the level of protein tyrosine kinase activity. Tyrosine kinases such as VEGFR-2, PDGFR-β and c-Kit etc. catalyze the phosphorylation reaction of ATP and biotin-labeled peptide substrate, which will be ceased when the kinase activity is inhibited. According to the principle of ELISA, a monoclonal antibody can react with phosphorylated substrate specially, so biotin-labeled substrate is binded to streptavidin-coated ELISA plate, and then binded to a HRP-labeled goat anti-mouse antibody. Finally TMB is added for a color reaction and the value of A450-A630 is read by ELISA plate reader. The OD value can reflect the inhibitory activity of the VEGFR-2, PDGFR-β, c-Kit tyrosine kinases etc. treated with the test compounds at the different concentrations. So, the assay may be used to measure the inhibition ratio of the compounds for the tyrosine kinase activity. Similar assays can be designed along the same lines for any PK using techniques well known in the art. Tyrosine kinases such as VEGFR-2, PDGFR-β and c-Kit etc. catalyze the phosphorylation reaction of ATP and biotin-labeled peptide substrate, which will be ceased when the kinase activity is inhibited. According to the principle of ELISA, a monoclonal antibody can react with phosphorylated substrate specially, so biotin-labeled substrate is binded to streptavidin-coated ELISA plate, and then binded to a HRP-labeled goat anti-mouse antibody. Finally TMB is added for a color reaction and the value of A450-A630 is read by ELISA plate reader. The OD value can reflect the inhibitory activity of the VEGFR-2, PDGFR-β c-Kit tyrosine kinases treated with the test compounds at the different concentrations. So, the assay may be used to measure the inhibition ratio of the compounds for the tyrosine kinase activity. Similar assays can be designed along the same lines for any PK using techniques well known in the art. VEGF Receptor 2, PDGF Receptor-beta and c-kit kinase assay kit (include kinase, 1.25M DTT, substrate peptide, 10 mM ATP, P-[…] Mouse antibody, 4×HTScan tyrosine kinase buffer), Cell Signaling Technology CO.; HRP labeled goat anti mouse IgG, Protein Tech CO.; TMB, Pierce CO.; Streptavidin Microtitration Plate, Greiner Bio-one CO.; Infinite M200 Reader, Tecan CO. 1.2.1 Immediately transfer enzyme from -80° C. to ice. Allow enzyme to thaw on ice then at 4° C. and centrifugate transiently to the bottom of centrifuge tube, then lay back on ice quickly 1.2.2 Add 10 μl of DTT (1.25 M) to 2.5 ml of 4×HTScan tyrosine kinase buffer (240 mM HEPES pH 7.5, 20 mM MgCl2, 20 mM MnCl2, 12 μM Na3VO4). Transfer 0.6 ml of DTT/Kinase buffer to each enzyme tube to make 4× reaction Cocktail. Incubate 12.5 μl of the 4× reaction cocktail with 12.5 μl/well prediluted compound of interest for 5 minutes at room temperature, and set blank control, free-enzyme control, negative control and positive control. 1.2.3 Add 10 μl 10 mM ATP to 1.25 ml 6 μM substrate peptide. Dilute the mixture with dH20 to 2.5 ml to make 2×ATP/substrate cocktail. Add 25 μl of 2×ATP/substrate cocktail to 25 μl/well preincubated reaction cocktail/compound. Incubate reaction plate at room temperature for 30 minutes. 1.2.4 Add 50 μl/well stop Buffer (50 mM EDTA, pH 8) to stop the reaction. Transfer 25 μl of each reaction and 75 μl dH2O/well to a 96-well streptavidin coated plate and incubate at room temperature for 60 minutes. Wash three times with 200 μl/well PBS/T(1×PBS, 0.05% Tween-20). 1.2.5 Dilute primary antibody, Phospho-Tyrosine mAb (P-[…]), 1:500 in PBS/T with 1% BSA. Add 100 μl/well primary antibody. Incubate at room temperature for 60 minutes. Wash three times with 200 μl/well PBS/T(1×PBS, 0.05% Tween-20). 1.2.6 Prepare appropriate dilution of HRP labeled secondary antibody, 1:500 in PBS/T with 1% BSA. Add 100 μl/well secondary antibody solution. Incubate at room temperature for 30 minutes. […]
# T1 sequence (P09619 33-1106): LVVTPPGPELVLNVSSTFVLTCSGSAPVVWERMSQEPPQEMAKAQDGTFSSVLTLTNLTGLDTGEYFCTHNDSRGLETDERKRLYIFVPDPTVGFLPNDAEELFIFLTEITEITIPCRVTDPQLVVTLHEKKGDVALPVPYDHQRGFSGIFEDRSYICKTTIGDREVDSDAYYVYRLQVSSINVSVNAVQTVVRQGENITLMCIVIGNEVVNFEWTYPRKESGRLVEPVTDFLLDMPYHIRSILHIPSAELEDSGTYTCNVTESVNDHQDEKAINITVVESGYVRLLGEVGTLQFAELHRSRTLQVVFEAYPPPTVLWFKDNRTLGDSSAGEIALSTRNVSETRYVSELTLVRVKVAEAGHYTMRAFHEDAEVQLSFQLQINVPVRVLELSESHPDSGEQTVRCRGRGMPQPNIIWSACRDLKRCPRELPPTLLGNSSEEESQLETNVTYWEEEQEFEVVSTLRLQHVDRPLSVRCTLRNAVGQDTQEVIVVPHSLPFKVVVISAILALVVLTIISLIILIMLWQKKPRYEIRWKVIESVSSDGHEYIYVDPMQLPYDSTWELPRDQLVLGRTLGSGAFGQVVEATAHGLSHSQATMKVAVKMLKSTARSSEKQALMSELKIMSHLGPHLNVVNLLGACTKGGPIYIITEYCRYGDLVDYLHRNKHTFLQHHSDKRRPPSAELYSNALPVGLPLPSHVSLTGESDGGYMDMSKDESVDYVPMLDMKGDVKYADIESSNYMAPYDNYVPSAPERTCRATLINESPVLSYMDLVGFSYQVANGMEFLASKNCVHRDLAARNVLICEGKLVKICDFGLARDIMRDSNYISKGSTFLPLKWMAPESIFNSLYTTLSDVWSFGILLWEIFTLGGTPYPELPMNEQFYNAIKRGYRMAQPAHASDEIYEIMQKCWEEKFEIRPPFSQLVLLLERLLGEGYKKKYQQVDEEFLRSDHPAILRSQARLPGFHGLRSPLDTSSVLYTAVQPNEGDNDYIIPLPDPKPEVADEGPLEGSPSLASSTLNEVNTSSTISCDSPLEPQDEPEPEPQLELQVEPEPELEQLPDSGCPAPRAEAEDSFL
row,Compound,inhibition at 0.1 µM [%]
1,"CCN(CC)CCNC(=O)c1c(C)[nH]c2c1CCC/C2=C1/C(=O)Nc2ccc(F)cc21 [I-2, N-(2-(diethylamino)ethyl)-2-methyl-7-[1,2-dihydro-5-fluoro-2-oxo-3H-indol-(Z)-3-ylidene]-4,5,6,7-tetrahydro-1H-indole-3-carboxamide]",90
2,"CCN(CC)CCNC(=O)c1c(C)[nH]c2c1CCC/C2=C1/C(=O)Nc2ccc(Cl)cc21 [I-3, N-(2-(diethylamino)ethyl)-2-methyl-7-[1,2-dihydro-5-chloro-2-oxo-3H-indol-(Z)-3-ylidene]-4,5,6,7-tetrahydro-1H-indole-3-carboxamide]",88
3,"CCN(CC)CCNC(=O)c1c(C)[nH]c2c1CCC/C2=C1/C(=O)Nc2ccc(C)cc21 [I-4, N-(2-(diethylamino)ethyl)-2-methyl-7-[1,2-dihydro-5-methyl-2-oxo-3H-indol-(Z)-3-ylidene]-4,5,6,7-tetrahydro-1H-indole-3-carboxamide]",86
4,"CCN(CC)CCNC(=O)c1c(C)[nH]c2c1CCC/C2=C1/C(=O)Nc2ccccc21 [I-5, N-(2-(diethylamino)ethyl)-2-methyl-7-[1,2-dihydro-2-oxo-3H-indol-(Z)-3-ylidene]-4,5,6,7-tetrahydro-1H-indole-3-carboxamide]",87

# Results, then the molecule that gave them:
row,inhibition at 0.1 µM [%],Compound
1,86,"Cc1[nH]c2c(c1C(=O)NCCCN(C)C)CCC/C2=C1/C(=O)Nc2ccc(Cl)cc21 [I-7, N-(3-(dimethylamino)propyl)-2-methyl-7-[1,2-dihydro-5-chloro-2-oxo-3H-indol-(Z)-3-ylidene]-4,5,6,7-tetrahydro-1H-indole-3-carboxamide]"
2,85,"Cc1[nH]c2c(c1C(=O)NCC(O)CN1CCCC1)CCC/C2=C1/C(=O)Nc2ccccc21 (stereo not drawn) [I-70, N-(2-hydroxy-3-(pyrrolidin-1-yl)propyl)-2-methyl-7-[1,2-dihydro-2-oxo-3H-indol-(Z)-3-ylidene]-4,5,6,7-tetrahydro-1H-indole-3-carboxamide]"
3,89,"Cc1[nH]c2c(c1C(=O)NCCO)CCC/C2=C1/C(=O)Nc2ccccc21 [I-8, N-(2-hydroxyethyl)-2-methyl-7-[1,2-dihydro-2-oxo-3H-indol-(Z)-3-ylidene]-4,5,6,7-tetrahydro-1H-indole-3-carboxamide]"
4,85,"Cc1[nH]c2c(c1C(=O)NCCN(C)C)CCC/C2=C1/C(=O)Nc2ccc(F)cc21 [I-6, N-(2-(dimethylamino)ethyl)-2-methyl-7-[1,2-dihydro-5-fluoro-2-oxo-3H-indol-(Z)-3-ylidene]-4,5,6,7-tetrahydro-1H-indole-3-carboxamide]"
5,87,"CCN(CC)CC(O)CNC(=O)c1c(C)[nH]c2c1CCC/C2=C1/C(=O)Nc2ccccc21 (stereo not drawn) [I-63, N-(3-(diethylamino)-2-hydroxypropyl)-2-methyl-7-[1,2-dihydro-2-oxo-3H-indol-(Z)-3-ylidene]-4,5,6,7-tetrahydro-1H-indole-3-carboxamide]"
